Read-outs that look alike come from different tables or passages of the source.
Experiments:
[1] = system: acetic acid-induced writhes; test: Writhing test (acetic acid); format: in vivo, ICR mice; conditions: mouse, oral
Description: To examine the pain relief effect of the sulfamate derivative compounds, a writhing test was referring to Fischer, L. G. et al. (2008).
ICR mice (male, 24-28 g; Orient Bio, Korea) were habituated before test in test room for 1 hour. Animals were fasted for 2 hr before administration of compounds. […] All compounds were dissolved in a vehicle of 30% (v/v) PEG 400 or 20% (v/v) Tween 80. The control group was treated with the vehicle without compounds.
[…] Animals were habituated in the cage for 5 min. 5 min after habituation, the number of writhes (abdominal constriction) was counted for 15 minutes referring to Korzeniewska-Rybicka, I. et al. (1998) and compared with that of the control.

SNL model = test: Antiallodynic activity in the Chung model (SNL, Spinal Nerve Ligation; von Frey); format: in vivo, Sprague-Dawley rats
Description: Male Sprague-Dawley rats (200-220 g, Orient Bio, Korea) were habituated for 1 week before the experiment and allowed free access to food and water throughout the experimentation. Room temperature and humidity were maintained at 24±2° C. and 50±10%, respectively. The neuropathic surgery (SNL, Spinal Nerve Ligation) model was done as described in Kim and Chung (1992). Briefly, an animal was put under gaseous anesthesia with isoflurane and NO2 with a 4:4 flow ratio. The left lumbar spinal nerves L5 and L6 were isolated and tightly ligated with 4-0 silk thread. The wound was treated with a gentamicin antibiotic solution (4 mg/kg, 4 ul/g by bodyweight), and the wound muscle was closed with Catgut® chrome 4/0 thread and the skin was closed with Dafilon 4/0 thread. Sham controls were prepared in the same manner with the spinal nerves were exposed, but no ligated L5 and L6 nerves. Preparation of the vehicle controls were identical to the group treated with compound, except for administration of vehicles without compound in the vehicle control group.
Tactile sensitivity (mechanical allodynia) was evaluated using von Frey monofilaments before and after treatment and animals the animals were included in the study only if the withdrawal threshold value was less than 4 g. One week after surgery, SNL-operated animals (n=4˜6), sham-operated animals (n=4˜10) and vehicle-operated animals (n=4˜13) were tested for tactile sensitivity with von Frey monofilaments with 3 trials in each animal. All animals were placed in a stainless steel mesh chamber and habituated for 30 min in the test cage. The tactile sensitivity for ipsilateral hind paw was measured using the up-and-down method (Dixon, 1980) with seven von Frey monofilaments (0.4, 1, 2, 4, 6, 8, and 15 g) in 3 trials. The tactile sensitivity test was followed by Dixon's method (Dixon, 1980). The 50% paw withdrawal threshold for each paw was calculated using the following formula: [Xth] log=[vFr] log+ky where [vFr] is the force of the last von Frey used, k=0.2249 which is the average interval (in log units) between the von Frey monofilaments, and y is a value that depends upon the pattern of withdrawal responses (Dixon, 1980).
All animals were fasted for 18 h before the administration of the compounds. The antiallodynic effect of the compounds were evaluated at the various doses (n=5˜6), orally administered in a volume of 5 ul/g by bodyweight in a vehicle of 30% (v/v) PEG 400 (Example 7) or 20% (v/v) Tween 80 (Examples 5 and 6) or saline. […]
The relative values compared to the sham group (% control) were calculated and are shown in Table 5, which show an antiallodynic effect of the test compounds in the SNL model in rats.

[2] = system: Post operation-induced pain model; test: Antiallodynic activity on post operative pain-induced pain model (von Frey); format: in vivo, Sprague-Dawley rats; conditions: rat, intraperitoneal, 18.9 mg/kg administered, time not given
Description: Male Sprague-Dawley rats (Orient Bio, Korea), 300-320 g, total of 201 rats were used (details in Table 7). Rats were habituated at least 3 days before surgery and free access to food and water (room temperature and humidity were maintained at […] and 50±10%, respectively). The process of performing the post-operation model's surgery was adapted from Brennan et al (1996). At first, rats with allodynia (threshold valueless than 8 g) were excluded in Pre-von Frey Test. During the post-operation surgery, rats were anesthetized under gaseous anesthesia with 2% isoflurane. Rats were laid face down on a plate fixed at 37° C. to prevent against hypothermia. The ipsilateral plantar aspect (left side) of the hind paw was prepared in a sterile manner with a 10% povidone-iodine solution. A longitudinal incision (1 cm) (FIG. 2-A) was made with a blade (number 11) through the skin and fascia of the ipsilateral plantar aspect of the foot, starting from 0.5 cm below the proximal edge of the heel and extending toward the toes. Rats' plantar muscles were elevated and incised longitudinally (FIG. 2-B). After hemostasis with gentle pressure, the skin was opposed with 2 mattress sutures (4-0 Dafilon) (FIG. 2-C). The wound site was covered with a 10% povidone-iodine solution gauze and injected with antibiotics (gentamicin, 8 mg/kg, ip). The sutures were removed under halothane anesthesia approximately 30 hours later, at the end of post-operative day 1.
After 2-3 days of recovery, rats with a good response (threshold less than 4 g) in Pre-von Frey Test were selected. According to this response, we made three groups with each group having equal average responses: Group 1, post-operation and drug treated; Group 2, post-operation and vehicle treated; Group 3, no post-operation and vehicle treated. In this study, Group 3 was the sham control (positive) group. The group 2 was used to check for possible failures to generate post-operative pain.
For efficacy measure, the threshold value of group C was assigned 100% efficacy, and the percentage of the threshold values of group A compared to group C (for each different dose level) were calculated as the efficacies. Base on these efficacy values, ED50 was calculated using log fitting. If there was no clear ED50, then we marked the percent efficacy at the highest tested dose or larger than highest tested dose.
For pain threshold test, all animals were placed in a stainless steel meshed chamber and habituated for 30 min in the test box. The tactile sensitivity of the ipsilateral hind paw was measured using the up-and-down method (Dixon, 1980) with seven von Frey monofilaments (0.4, 1, 2, 4, 6, 8, and 15 g) using 3 trials. The 50% paw withdrawal threshold for each paw was calculated using the following formula: [Xth] log=[vFr] log+ky, where [vFr] is the force of the last von Frey filament used, k=0.2249 which is the average interval (in log units) between the von Frey monofilaments, y which is a value that depends upon the pattern of withdrawal responses, and Xth which is the threshold value (Dixon, 1980).
Drugs were dissolved 30% PEG400 for example 60, 0.9% saline for Pregabalin, 20% Tween80 for Tylenol, 0.9% saline for Topiramate. These vehicles were selected depending on the compound's solubility. Intraperitoneal injection (5 μl/g) was done for all drugs.
The relative values compared to the sham (% control) were calculated and shown in Table 8, which show an antiallodynic effect of the compound of examples on Post operation-induced pain model in rats.

CFA-induced pain model = test: Antiallodynic activity on Complete Freund's Adjuvant (CFA)-induced inflammatory pain model (von Frey); format: in vivo, Sprague-Dawley rats; conditions: Rattus norvegicus, ip, read-out: CFA model: effect (%) compared to control
Description: Male, Sprague-Dawley rats (200-220 g, Nara Bio, Korea) were habituated for 1 week before surgery and allowed free access to food and water throughout the experimentation. Room temperature and humidity were maintained at 24±2° C. and 50±10%, respectively.
CFA-induced inflammatory pain was induced by the procedure of Nagakura et al. (2003) and Gregory P. et al. (2010) with minor modifications. CFA (sigma, USA) was injected into the left plantar with a 100 ul volume under gaseous anesthesia with isoflurane and NO2 with a 4:4 flow ratio. Sham controls were injected with 100 ul of saline and preparation of the vehicle controls were identical to the group treated with compound, except for administration of vehicles without compound in the vehicle control group.
Tactile sensitivity (mechanical allodynia) was evaluated using von Frey monofilaments before and after treatment, and the animals were included in the study only if the withdrawal threshold value was less than 4 g. One week after surgery, CFA-infused animals (n=4˜6), sham-operated animals (n=12), and vehicle-operated animals (n=17) were tested for tactile sensitivity with von Frey monofilaments, with 3 trials for each animal. All animals were placed in a stainless steel mesh chamber and habituated for 30 min in the test cage. The tactile sensitivity for the ipsilateral hind paw was measured using the up-and-down method (Dixon, 1980) with seven von Frey monofilaments (0.4, 1, 2, 4, 6, 8, and 15 g) in 3 trials. The tactile sensitivity test was followed by Dixon's method (Dixon, 1980). The 50% paw withdrawal threshold for each paw was calculated using the following formula: [Xth] log=[vFr] log+ky where [vFr] is the force of the last von Frey used, k=0.2249 which is the average interval (in log units) between the von Frey monofilaments, and y is a value that depends upon the pattern of the withdrawal responses (Dixon, 1980).
The antiallodynic effect of the compound of Example was evaluated at the doses of 10, 30 and 60 mg/kg (n=4˜6), and were intraperitoneally administered in a volume of 5 ul/g by bodyweight in a vehicle of 30% (v/v) PEG. […]
The relative values compared to the sham (% control) were calculated and are shown in Table 4, which show an antiallodynic effect of the compound of examples in the CFA-induced pain model in rats.

[3] = Rattus norvegicus, po, read-out: SNL model: effect (%) compared to control, rat, oral, 3.5 mg/kg administered, time not given

For CC1(C)Oc2ccccc2C(COS(N)(=O)=O)O1 (racemic) [Example 3, (2,2-dimethyl-4H-benzo[d][1,3]dioxin-4-yl))methyl sulfamate], the “Writh test: effect (%) compared to control” value ([1]; 80 mg/kg administered, 0.5 h) was “(63.9%, 0.5 h)” and the response vs control in vivo at 3.5 mg/kg (SNL model; rat, oral, 3.5 mg/kg administered, 0.5 h, read-out: SNL model: effect (%) compared to control) was 35%.
CC1(C)Oc2ccccc2[C@H](COS(N)(=O)=O)O1 [Example 1, ((R)-2,2-dimethyl-4H-benzo[d][1,3]dioxin-4-yl)methyl sulfamate] gave an ED50 ([1]; 0.25 h, read-out: Writh test: ED50) of 56.8 mg/kg and an ED50 (SNL model; rat, oral, 1 h, read-out: SNL model: ED50) of 9.9 mg/kg.
With CC1(C)Oc2ccc(Cl)cc2[C@@H](COS([NH-])(=O)=O)O1.[Na+] [Example 62, Sodium (S)-(((6-chloro-2,2-dimethyl-4H-benzo[d][1,3]dioxin-4-yl)methoxy)sulfonyl)amide] the melting point was 133.8 to 135.3 °C and the response vs control in vivo at 3.5 mg/kg (SNL model; [3]) was 32.6%.
For CC1(C)Oc2ccc(Cl)cc2C(COS([NH-])(=O)=O)O1.[Na+] (stereo not shown) [Example 63, Sodium (((6-chloro-2,2-dimethyl-4H-benzo[d][1,3]dioxin-4-yl)methoxy)sulfonyl)amide], the “Post Operation: effect (%) compared to control” value [2] was “(26.6%)”, the melting point was 129.3 to 132.3 °C and the response vs control in vivo at 3.5 mg/kg (SNL model; [3]) was 32.9%. It also gave a response vs control in vivo at 25 mg/kg (CFA-induced pain model) of 16.9%.
Compound [NH-]S(=O)(=O)OC[C@@H]1OC2(CCCC2)Oc2ccccc21.[Na+] [Example 64, Sodium (R)-(((4H-spiro[benzo[d][1,3]dioxine-2,1′-cyclopentan]-4-yl)methoxy)sulfonyl)amide] has a melting point of 132.9 to 134.9 °C and a response vs control in vivo at 3.5 mg/kg (SNL model; [3]) of 22.5%.
Compound [NH-]S(=O)(=O)OCC1OC2(CCCC2)Oc2ccccc21.[Na+] (stereo not shown) [Example 66, Sodium (((4H-spiro[benzo[d][1,3]dioxine-2,1′-cylcopentan]-4-yl)methoxy)sulfonyl)amide] has a melting point of 145.5 to 148.9 °C and a response vs control in vivo at 3.5 mg/kg (SNL model; Rattus norvegicus, po, 0.5 h, read-out: SNL model: effect (%) compared to control, rat, oral, 3.5 mg/kg administered, 0.5 h) of 59.5%.
For [NH-]S(=O)(=O)OCC1OC2(CCCC2)Oc2ccc(Cl)cc21.[Na+] (stereo not shown) [Example 67, Sodium ((6-chloro-(4H-spiro[benzo[d][1,3]dioxine-2,1′-cyclopentan]-4-yl)methoxy)sulfonyl)amide], the melting point was 68.6 to 72.3 °C and the response vs control in vivo at 3.5 mg/kg (SNL model; [3]) was 49.1%.
